Patent US20230233569A1 (Revolution Medicines, Inc., priority 2020, published 2023)

What was measured:
KRAS G13D = KRAS G13D (Homo sapiens, UniProt P01116+P62937, G13D); assay: Disruption of BRAF RBD interaction with Ras (FRET / MOA assay, with Cyclophilin A); assay type: biochemical; conditions: KRAS G13D; read-out: KRAS G13D FRET data IC50
Summary of the method: (§1)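 TR-FRET readout: a drop in ratio relative to DMSO wells marks disruption of the K-Ras:BRAF RBD complex via compound-induced K-Ras–Cyclophilin A ternary complex. Dosing used ten 3-fold steps from 30 μM final, 3 h at 25 °C, then Eu-anti-His 10 nM plus APC-anti-GST 50 nM for another 1.5 h. Values are IC50s.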

KRAS G12D = KRAS G12D (Homo sapiens, UniProt P01116+P62937, G12D); assay: as above; assay type: biochemical; conditions: read-out: KRAS G12D FRET data, IC50
Summary of the method: as §1

KRAS G12C = KRAS G12C (Homo sapiens, UniProt P01116+P62937, G12C); assay: as above; assay type: biochemical; conditions: KRAS G12C; read-out: KRAS G12C FRET data IC50
Summary of the method: as §1

KRAS G13C = KRAS G13C (Homo sapiens, UniProt P01116+P62937, G13C); assay: as above; assay type: biochemical; conditions: KRAS G13C; read-out: KRAS G13C FRET data IC50
Summary of the method: as §1

KRAS G12S = KRAS G12S (Homo sapiens, UniProt P01116+P62937, G12S); assay: as above; assay type: biochemical; conditions: read-out: KRAS G12S FRET data, IC50
Summary of the method: as §1

NRAS G12C = NRAS G12C (Homo sapiens, UniProt P01111+P62937, G12C); assay: as above; assay type: biochemical; conditions: NRAS G12C; read-out: NRAS G12C FRET data IC50
KRAS G12V = KRAS G12V (Homo sapiens, UniProt P01116+P62937, G12V); assay: as above; assay type: biochemical; conditions: KRAS G12V; read-out: KRAS G12V FRET data IC50
Summary of the method: as §1

KRAS WT = KRAS WT (Homo sapiens, UniProt P01116+P62937); assay: as above; assay type: biochemical; conditions: KRAS WT; read-out: KRAS WT FRET data IC50
Summary of the method: as §1

NCI-H358 (K-Ras G12C) = assay: CellTiter-Glo cell viability assay, 5-day treatment; assay type: cell-based; conditions: Homo sapiens, NCI-H358, H358, K-Ras G12C; read-out: Additional H358 Cell Viability assay data (K-Ras G12C, IC50)
Summary of the method: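 Compounds were dispensed directly onto seeded cells and incubated for 5 days, then plates were equilibrated to room temperature for about 30 minutes before luminescence reading. Signals were expressed as percent of the mean DMSO control and fitted with a four-parameter logistic curve.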

Sequence of KRAS G13D (P01116 1-169 isoform P01116-2 G13D limits assumed): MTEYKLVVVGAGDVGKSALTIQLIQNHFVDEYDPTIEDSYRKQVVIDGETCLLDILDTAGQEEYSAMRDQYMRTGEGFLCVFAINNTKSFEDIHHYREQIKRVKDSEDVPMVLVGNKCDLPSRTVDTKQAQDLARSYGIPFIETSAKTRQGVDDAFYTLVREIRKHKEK
Sequence of KRAS G13D (P62937 whole entry): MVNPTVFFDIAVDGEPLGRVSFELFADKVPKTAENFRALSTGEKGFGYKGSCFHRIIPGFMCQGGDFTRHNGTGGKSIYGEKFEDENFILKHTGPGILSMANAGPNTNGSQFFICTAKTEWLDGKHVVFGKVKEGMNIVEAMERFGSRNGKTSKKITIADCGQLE
Sequence of KRAS WT (P01116 1-169 isoform P01116-2 limits assumed): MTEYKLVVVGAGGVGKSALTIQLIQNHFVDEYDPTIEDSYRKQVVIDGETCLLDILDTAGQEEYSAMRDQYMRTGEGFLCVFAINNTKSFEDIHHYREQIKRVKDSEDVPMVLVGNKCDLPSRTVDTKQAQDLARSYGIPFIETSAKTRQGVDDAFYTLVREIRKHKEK
Sequence of KRAS WT (P62937 whole entry): as the sequence (P62937 whole entry) above
Sequence of NRAS G12C (P01111 whole entry G12C): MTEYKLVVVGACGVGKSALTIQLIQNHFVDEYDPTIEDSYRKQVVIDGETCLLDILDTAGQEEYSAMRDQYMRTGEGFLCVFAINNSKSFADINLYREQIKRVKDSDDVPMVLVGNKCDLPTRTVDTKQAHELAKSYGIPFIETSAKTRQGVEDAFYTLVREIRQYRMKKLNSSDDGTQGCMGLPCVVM
Sequence of NRAS G12C (P62937 whole entry): as the sequence (P62937 whole entry) above
Sequence of KRAS G12C (P01116 1-169 isoform P01116-2 G12C): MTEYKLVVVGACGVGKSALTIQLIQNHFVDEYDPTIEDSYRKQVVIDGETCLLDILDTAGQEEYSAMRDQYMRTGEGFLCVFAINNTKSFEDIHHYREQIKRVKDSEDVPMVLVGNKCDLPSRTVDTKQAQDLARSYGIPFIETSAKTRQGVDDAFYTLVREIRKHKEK
Sequence of KRAS G12C (P62937 whole entry): as the sequence (P62937 whole entry) above
Sequence of KRAS G12D (P01116 1-169 isoform P01116-2 G12D limits assumed): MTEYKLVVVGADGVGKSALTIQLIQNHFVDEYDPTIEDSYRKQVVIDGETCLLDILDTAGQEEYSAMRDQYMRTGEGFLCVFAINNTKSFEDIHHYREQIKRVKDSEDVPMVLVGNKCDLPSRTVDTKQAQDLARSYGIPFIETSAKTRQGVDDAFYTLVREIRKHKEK
Sequence of KRAS G12D (P62937 whole entry): as the sequence (P62937 whole entry) above
Sequence of KRAS G12V (P01116 1-169 isoform P01116-2 G12V limits assumed): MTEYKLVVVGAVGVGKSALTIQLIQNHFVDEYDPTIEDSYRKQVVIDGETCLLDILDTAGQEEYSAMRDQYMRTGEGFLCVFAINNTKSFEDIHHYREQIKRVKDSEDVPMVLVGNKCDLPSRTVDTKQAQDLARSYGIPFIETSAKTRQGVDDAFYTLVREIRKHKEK
Sequence of KRAS G12V (P62937 whole entry): as the sequence (P62937 whole entry) above
Sequence of KRAS G13C (P01116 1-169 isoform P01116-2 G13C): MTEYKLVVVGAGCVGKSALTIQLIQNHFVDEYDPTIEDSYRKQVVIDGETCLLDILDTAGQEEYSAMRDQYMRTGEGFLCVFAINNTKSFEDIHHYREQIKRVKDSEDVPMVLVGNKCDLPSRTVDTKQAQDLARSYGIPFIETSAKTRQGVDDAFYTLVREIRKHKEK
Sequence of KRAS G13C (P62937 whole entry): as the sequence (P62937 whole entry) above
Sequence of KRAS G12S (P01116 1-169 isoform P01116-2 G12S limits assumed): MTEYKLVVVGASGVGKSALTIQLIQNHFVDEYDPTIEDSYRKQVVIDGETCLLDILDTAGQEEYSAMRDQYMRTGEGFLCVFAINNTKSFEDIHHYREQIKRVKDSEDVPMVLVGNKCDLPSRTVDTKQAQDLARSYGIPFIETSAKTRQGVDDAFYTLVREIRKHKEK
Sequence of KRAS G12S (P62937 whole entry): as the sequence (P62937 whole entry) above

SMILES	IC50 (KRAS G13D) [nM]	IC50 (KRAS G12D) [nM]	IC50 (KRAS G12C) [nM]	IC50 (KRAS G13C) [nM]	IC50 (KRAS G12S) [nM]	IC50 (NRAS G12C) [nM]	IC50 (KRAS G12V) [nM]	IC50 (KRAS WT) [nM]	IC50 (NCI-H358 (K-Ras G12C)) [nM]
CCn1c(-c2cccnc2[C@H](C)OC)c2c3cc(ccc31)-c1csc(n1)C[C@H](NC(=O)[C@H](C(C)C)N(C)C(=O)N1CC(N(C)C(=O)C#CC(C)(C)N3CCC3)C1)C(=O)N1CCC[C@H](N1)C(=O)OCC(C)(C)C2 [Example A379]	100 to 1000	1000 to 10000	< 10	10 to 100	100 to 1000	10 to 100	100 to 1000	100 to 1000	< 10
CCn1c(-c2cccnc2[C@H](C)OC)c2c3cc(ccc31)N1CCO[C@@](C)(CC(NC(=O)[C@H](C(C)C)N(C)C(=O)C3(F)CCN(C(=O)C#CC(C)(C)N(C)C)CC3)C(=O)N3CCC[C@H](N3)C(=O)OCC(C)(C)C2)C1 (stereo partly drawn) [Example A550]	1000 to 10000	1000 to 10000	< 10	100 to 1000	1000 to 10000	< 10	100 to 1000	100 to 1000	< 10
C=CC(=O)N1CCO[C@H]2CN(C(=O)N(C)[C@H](C(=O)N[C@H]3CN4CCC=C(C4)c4ccc5c(c4)c(c(-c4cccnc4[C@H](C)OC)n5CC)CC(C)(C)COC(=O)[C@@H]4CCCN(N4)C3=O)C(C)C)C[C@H]21 [Example A552]	1000 to 10000	1000 to 10000	10 to 100	10 to 100	1000 to 10000	10 to 100	1000 to 10000	100 to 1000	< 10
CO[C@@H](COC1CN(C(=O)C#CC(C)(C)N(C)C)C1)C(=O)N[C@H]1Cc2cccc(c2)-c2ccc3c(c2)c(c(-c2cccnc2[C@H](C)OC)n3CC(F)(F)F)CC(C)(C)COC(=O)[C@@H]2CCCN(N2)C1=O [Example A556]	> 10000	> 10000	< 10	1000 to 10000	> 10000	< 10	1000 to 10000	1000 to 10000	< 10
CCn1c(-c2cccnc2[C@H](C)OC)c2c3cc(ccc31)-c1cccc(c1)C[C@H](NC(=O)[C@H](C(C)C)N1CC[C@]3(CCN(C(=O)C#C[C@]4(N(C)C)CCOC4)C3)C1=O)C(=O)N1CCC[C@H](N1)C(=O)OCC(C)(C)C2 [Example A559]	1000 to 10000	1000 to 10000	10 to 100	100 to 1000	1000 to 10000	10 to 100	1000 to 10000	1000 to 10000	< 10
C=CC(=O)N1CCOC2(CCN(C(=O)N(C)[C@H](C(=O)N[C@H]3CN4CCC=C(C4)c4ccc5c(c4)c(c(-c4cccnc4[C@H](C)OC)n5CC)CC(C)(C)COC(=O)[C@@H]4CCCN(N4)C3=O)C(C)C)CC2)C1 [Example A563]	1000 to 10000	> 10000	100 to 1000	100 to 1000	1000 to 10000	100 to 1000	1000 to 10000	1000 to 10000	100 to 1000
CCn1c(-c2cccnc2[C@H](C)OC)c2c3cc(ccc31)-c1cccc(c1)C[C@H](NC(=O)[C@H](C(C)C)N1CC[C@]3(CCN(C(=O)C#C[C@@H]4COCCN4C4COC4)C3)C1=O)C(=O)N1CCC[C@H](N1)C(=O)OCC(C)(C)C2 [Example A565]	> 10000	> 10000	100 to 1000	1000 to 10000	1000 to 10000	100 to 1000	1000 to 10000	> 10000	10 to 100
CCn1c(-c2cccnc2[C@H](C)OC)c2c3cc(ccc31)-c1cccc(c1)C[C@H](NC(=O)[C@@H](CN1CC[C@]3(CCN(C(=O)C#C[C@H]4COCCN4C)C3)C1=O)C(C)C)C(=O)N1CCCC(N1)C(=O)OCC(C)(C)C2 (stereo partly drawn) [Example A592]	> 10000	> 10000	10 to 100	1000 to 10000	1000 to 10000	10 to 100	1000 to 10000	> 10000	< 10
